Experimental data reported in patent US10881642B2, “Autophagy enhancer and use thereof” (Industry-Academic Cooperation Foundation, Yonsei University, priority 2016, dated 2021).

Tested on: HFD-fed hIAPP+ mice
Assay: Metabolic profile and islet amyloid of HFD-fed hIAPP+ mice
Assay type: in vivo
Procedure: (FIG. 13A) INS-1 cells transfected with non-amyloidogenic prepro-mIAPP-HA or amyloidogenic prepro-hIAPP-HA construct were treated with MSL or MSL-7 followed by western blot analysis using anti-HA antibody. (FIG. 13B) the transfected cells of (FIG. 13A) were treated with MSL-7 in the presence or absence of bafilomycin followed by western blot analysis using anti-HA antibody. (FIG. 13C) The transfected cells were treated with MSL-7 in the presence or absence of 3-MA, after which the amount of […] contained in the cell lysates were measured. (FIG. 13D) HFD-fed hIAPP+ mice were administered with MSL-7, and non-fasting glucose level was monitored. (FIG. 13E) IPGTT. (FIG. 13F) HFD-fed hIAPP+ mice were administered with MSL-7 for 8 weeks and the insulinogenic index was measured. (FIG. 13G) HFD-fed hIAPP+ mice were administered with MSL-7 for 8 weeks and the pancreatic section was obtained. All antibody was used for immunohistochemistry (left). The percentage of A11-[…] cells among DAPI+ cells (right). (FIG. 13H) FSB stained pancreatic section of HFD-fed hIAPP+ mice administered with MSL-7 for 8 weeks (left). Average fluorescence intensity/area (right).
Screening of autophagy enhancer. […] Luciferase assay. Firefly and Renilla luciferase assays were conducted using the Dual-Luciferase Reporter Assay System (Promega) according to the manufacturer's recommendation. In brief, cells were lysed in 1× lysis buffer and subjected to a single round of freezing/thawing. Firefly luciferase was determined after mixing 5 μl of lysate with 25 μl of Luciferase Assay Reagent II. Renilla luciferase was then determined after further addition of 20 ul of Stop&Glo Reagent. Cell culture and media and drugs treatment. HeLa, TFEB-GFP-HeLa, SK-HEP1 (hepatoma cell line) and Hepa1c1c7 (hepatoma cell line) cells were cultured in the following media: (normal) Dulbecco's modified Eagle's medium (DMEM, Sigma-Aldrich) supplemented with 10% FBS and 1% penicillin/streptomycin; (starvation) HBSS media with Ca and Mg supplemented with 10 mM HEPES; Drugs treatment: MSL compound (50-100 μM); Rapamycin ([…]); Torin-1 (1 μM); Bafilomycin (100 nM); Cyclosporin A (10 μM); and FK506 (5 μM). Cells were treated with oleic acid (400 μM) and palmitic acid (400 μM) for 24 h. Where indicated, cells were washed off with HBSS and replaced by DMEM with or without MSL for 16 h. INS-1 cells, a insulinoma cell line of […] were cultured as described previously (Kim et al., 2014 ibid) in the presence or absence of bafilomycin and treated with MSL-7. Lactate dehydrogenase (LDH) assay. Cytotoxicity was determined by the measurement of LDH release in cell culture media using the LDH kit (Roche), according to the protocol from the manufacturer. Transfection and plasmids. Cells were transiently transfected with DNA plasmids 3×FLAG-hTFEB (A Ballabio), FYVE-dsRed (Cantley LC), RFP-LC3 or mRFP-GFP-LC3 using lipofectamine 2000 (Invitrogen) according to the protocol from the manufacturer. […] Imaging and image quantification. […] Formation of acidic vesicular organelles was quantitated by staining the cells with acridine orange (Invitrogen, 5 ug/ml, 10 min). […] Cells or tissues were solubilized in lysis buffer supplemented with protease and phosphatase inhibitors and protein concentration was measured by the Bradford method. Ten to 30 micrograms were loaded on 4-12% Bis-Tris gel (NUPAGE, Invitrogen) or 8-15% SDS-PAGE, transferred to PVDF membranes and analyzed by western blot using the ECL method (Pierce). […]

SMILES: COc1oc(-c2ccccc2Cl)nc1S(=O)(=O)c1ccccc1 [MSL-7, 2-(2-chlorophenyl)-5-methoxy-4-(phenylsulfonyl) oxazole]
- non-fasting glucose level: significantly reduced
- FSB-stained pancreatic islet amyloid (8-week administration): similarly reduced
- accumulation of hIAPP oligomer (A11 antibody) (8-week administration): significantly reduced
- Glucose intolerance (IPGTT) (8 week treatment): significantly improved
- insulinogenic index (8 week treatment): significantly improved
